This note sets out measurements from ChEMBL document CHEMBL5465560, “Selectivity Literature for EUbOPEN Chemogenomic Library” (2024).

Assay [1] concerns the target T1, Histone-lysine N-methyltransferase EHMT2 (Homo sapiens) (UniProt Q96KQ7).
T1 sequence (whole entry): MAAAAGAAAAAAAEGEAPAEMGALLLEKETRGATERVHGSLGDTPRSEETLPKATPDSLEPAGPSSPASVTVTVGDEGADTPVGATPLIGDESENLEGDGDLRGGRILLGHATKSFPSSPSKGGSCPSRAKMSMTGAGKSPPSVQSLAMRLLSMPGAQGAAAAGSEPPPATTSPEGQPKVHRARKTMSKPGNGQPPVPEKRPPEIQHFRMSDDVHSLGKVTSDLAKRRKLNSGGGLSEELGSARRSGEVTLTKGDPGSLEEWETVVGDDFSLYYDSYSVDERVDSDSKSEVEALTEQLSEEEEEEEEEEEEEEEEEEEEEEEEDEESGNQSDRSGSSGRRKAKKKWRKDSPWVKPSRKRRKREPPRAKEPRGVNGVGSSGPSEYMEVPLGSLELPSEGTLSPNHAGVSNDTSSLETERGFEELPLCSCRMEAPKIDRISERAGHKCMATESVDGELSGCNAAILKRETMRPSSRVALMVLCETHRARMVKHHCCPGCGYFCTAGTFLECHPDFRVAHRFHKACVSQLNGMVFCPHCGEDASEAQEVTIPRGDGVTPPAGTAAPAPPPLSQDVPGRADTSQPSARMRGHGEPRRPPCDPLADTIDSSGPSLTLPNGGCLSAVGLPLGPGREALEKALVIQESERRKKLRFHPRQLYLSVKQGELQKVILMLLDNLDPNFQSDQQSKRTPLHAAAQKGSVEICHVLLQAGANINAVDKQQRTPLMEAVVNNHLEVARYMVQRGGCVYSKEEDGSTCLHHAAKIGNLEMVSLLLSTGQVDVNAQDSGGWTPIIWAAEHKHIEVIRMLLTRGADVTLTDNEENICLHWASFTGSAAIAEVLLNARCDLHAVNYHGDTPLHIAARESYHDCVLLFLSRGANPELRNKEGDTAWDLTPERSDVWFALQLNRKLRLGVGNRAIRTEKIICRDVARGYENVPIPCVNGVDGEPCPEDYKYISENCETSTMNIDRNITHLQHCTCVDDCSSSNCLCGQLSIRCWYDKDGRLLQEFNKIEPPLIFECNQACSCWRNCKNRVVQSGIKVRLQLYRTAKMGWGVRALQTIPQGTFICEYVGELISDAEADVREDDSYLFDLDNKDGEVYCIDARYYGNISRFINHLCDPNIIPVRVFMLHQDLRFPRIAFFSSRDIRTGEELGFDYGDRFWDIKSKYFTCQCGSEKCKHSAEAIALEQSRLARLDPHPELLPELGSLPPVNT
The experiment in a line: Selectivity interaction (Methyltransferase screen (radiometric assays, panel of 8 PRMTs, 21 protein lysine methyltransferases, 3 DNA methyltransferases, and one RNA methyltransferase)) EUB0000271b EHMT2.

For assay [2], the target named is CDK4/Cyclin D3 (Homo sapiens) (UniProt P11802+P30281). The experiment in a line: (§1) Selectivity interaction (KinomeScan (DiscoverX)) EUB0000607a CDK4. It is filed as protein-complex assay. The settings on record: at 10 µM.
Assay [3] concerns the target Cyclin-dependent kinase 4/cyclin D1 (Homo sapiens) (UniProt P11802+P24385). Described as §1. It is filed as protein-complex assay. The settings on record: at 10 µM.
Assay [4] deals with Proto-oncogene tyrosine-protein kinase Src (Homo sapiens, UniProt P12931). The experiment in a line: Selectivity interaction (KinomeScan (DiscoverX)) EUB0001049a SRC. The settings on record: at 1 µM.
Sequence of Proto-oncogene tyrosine-protein kinase Src (P12931 2-536 limits assumed): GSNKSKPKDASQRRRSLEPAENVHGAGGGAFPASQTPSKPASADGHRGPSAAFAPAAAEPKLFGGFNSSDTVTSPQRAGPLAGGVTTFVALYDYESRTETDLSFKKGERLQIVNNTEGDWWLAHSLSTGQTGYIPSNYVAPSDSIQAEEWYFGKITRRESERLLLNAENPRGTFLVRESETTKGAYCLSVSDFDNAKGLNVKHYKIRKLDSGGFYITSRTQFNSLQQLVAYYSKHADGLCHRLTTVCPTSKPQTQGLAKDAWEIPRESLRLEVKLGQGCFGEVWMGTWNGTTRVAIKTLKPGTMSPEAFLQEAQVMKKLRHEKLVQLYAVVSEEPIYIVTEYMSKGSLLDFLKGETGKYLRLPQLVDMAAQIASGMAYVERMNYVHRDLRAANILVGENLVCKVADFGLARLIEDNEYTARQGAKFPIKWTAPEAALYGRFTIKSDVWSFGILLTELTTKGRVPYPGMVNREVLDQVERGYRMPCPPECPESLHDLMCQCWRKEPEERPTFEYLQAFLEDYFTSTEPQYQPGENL
For assay [5], the target named is T2, Tyrosine-protein kinase JAK3 (Homo sapiens) (UniProt P52333).
T2 sequence (whole entry): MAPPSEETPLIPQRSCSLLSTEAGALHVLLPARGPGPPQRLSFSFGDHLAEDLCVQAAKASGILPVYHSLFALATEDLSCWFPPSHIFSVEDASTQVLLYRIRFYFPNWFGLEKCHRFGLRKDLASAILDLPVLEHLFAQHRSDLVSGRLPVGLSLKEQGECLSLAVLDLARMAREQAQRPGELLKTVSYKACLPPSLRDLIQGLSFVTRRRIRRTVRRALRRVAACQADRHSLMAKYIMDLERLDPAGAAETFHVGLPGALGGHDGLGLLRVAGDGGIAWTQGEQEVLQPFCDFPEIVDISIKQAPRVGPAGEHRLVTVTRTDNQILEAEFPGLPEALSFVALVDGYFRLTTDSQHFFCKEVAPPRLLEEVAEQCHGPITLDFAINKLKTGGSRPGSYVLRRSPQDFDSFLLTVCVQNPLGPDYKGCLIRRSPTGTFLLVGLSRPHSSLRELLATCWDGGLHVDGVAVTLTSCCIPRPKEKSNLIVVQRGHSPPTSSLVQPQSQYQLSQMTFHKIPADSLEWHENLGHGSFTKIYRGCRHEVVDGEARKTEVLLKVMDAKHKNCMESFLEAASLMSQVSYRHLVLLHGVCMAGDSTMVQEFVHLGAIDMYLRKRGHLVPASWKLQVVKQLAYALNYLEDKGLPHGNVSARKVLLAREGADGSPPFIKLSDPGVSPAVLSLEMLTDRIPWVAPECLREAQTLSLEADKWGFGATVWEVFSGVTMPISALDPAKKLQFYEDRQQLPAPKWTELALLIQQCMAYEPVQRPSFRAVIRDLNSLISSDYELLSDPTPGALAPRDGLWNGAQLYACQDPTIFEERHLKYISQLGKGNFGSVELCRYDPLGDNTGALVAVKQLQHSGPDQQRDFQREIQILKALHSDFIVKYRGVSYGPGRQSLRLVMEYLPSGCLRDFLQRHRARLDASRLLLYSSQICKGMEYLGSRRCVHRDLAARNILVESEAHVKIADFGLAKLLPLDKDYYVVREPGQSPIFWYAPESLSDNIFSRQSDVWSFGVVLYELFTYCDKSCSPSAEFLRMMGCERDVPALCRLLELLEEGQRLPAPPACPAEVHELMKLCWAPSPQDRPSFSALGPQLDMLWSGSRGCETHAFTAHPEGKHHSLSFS
The experiment in a line: Selectivity interaction (KinomeScan (DiscoverX)) EUB0000695a JAK3. The settings on record: at 100 nM.

The target of assay [6] is Cyclin-dependent kinase-like 1 (Homo sapiens) (UniProt Q00532). The assay is described as follows: Selectivity interaction (KinomeScan (DiscoverX)) EUB0000618a CDKL1. The settings on record: at 10 µM.
Sequence of Cyclin-dependent kinase-like 1 (Homo sapiens) (Q00532 whole entry): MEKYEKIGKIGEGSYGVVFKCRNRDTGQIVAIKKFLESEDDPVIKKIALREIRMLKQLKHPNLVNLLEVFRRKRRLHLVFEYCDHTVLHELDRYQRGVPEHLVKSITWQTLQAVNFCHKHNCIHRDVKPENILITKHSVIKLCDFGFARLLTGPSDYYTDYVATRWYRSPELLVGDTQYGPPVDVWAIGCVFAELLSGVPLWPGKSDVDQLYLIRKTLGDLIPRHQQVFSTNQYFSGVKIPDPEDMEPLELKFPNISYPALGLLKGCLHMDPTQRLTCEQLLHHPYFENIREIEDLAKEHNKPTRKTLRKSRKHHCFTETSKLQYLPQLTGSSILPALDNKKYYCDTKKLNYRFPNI

With `Cc1cc(C)cc([C@@H]2c3cc(C)ccc3NC(=O)CN2C(=O)c2ccc(Br)s2)c1`, the % of activity worked out at 96% in assay [1] (at 1 µM) and 96.3% in assay [1] (at 10 µM).

`CNC(=O)Nc1ccc(-c2nc(N3CC4CCC(C3)O4)c3cnn(C4CCC5(CC4)OCCO5)c3n2)cc1`: the % of control in assay [2] was 92%; in assay [3], 90%.

In assay [4], `COc1cc(Nc2nc(C)cc(-c3cnn4nc(OC)ccc34)n2)cc(C(F)(F)F)c1` came in with a % of control of 100%. Molecule `Cc1cc(F)c(C(=O)Nc2cccc(-c3nncn3C(C)C)n2)cc1-n1cnc(C2CC2)c1` registered a % of control in assay [5] of 100%. Consider `O[C@H]1CC[C@H](Nc2ncc3nc(Nc4c(F)cc(F)cc4F)n([C@H]4CCOC4)c3n2)CC1`, for which the % of control in assay [6] came out at 95%.
